Where no end group is shown, it is not given here.
Test system: PBMCs from HCMV seropositive subjects
Experiment: ex vivo IFN-γ Fluorospot assay
Format: cell-based, human
Details: 19 HCMV seropositive subjects, individual peptide 10 ug/ml, 20 hr; for No. of subjects responding: IFN-γ; for Magnitude of response: IFN-γ spots (FIG. 1: SFC/10^6 PBMC; no unit in table)
Description: To define the targets of HCMV-specific T cell epitopes recognized in healthy adults, the inventors screened PBMCs of 19 subjects, 10 males and 9 females, recruited from San Diego blood bank (SDBB). The HCMV seropositivity of all the subjects was confirmed by IgG ELISA (FIG. 6A). A total of 2593 HCMV peptides covering a total of 563 ORFs (1) were tested. However, as many of these predicted ORFs overlapped 100% with others, as they were internal to longer ORFs, these 563 contained 359 completely unique ORFs composed of ˜150“canonical” ORFs, and an additional ˜200 identified by ribosomal RNA profiling (1). These peptides corresponded to predicted dominant epitopes, based on a bioinformatic method that predicts promiscuous binding to HLA class II molecules (40). Each of the ORFs above was covered by multiple predicted epitopes (with a minimum of at least 2), with the exception of very small ORFs (less than 15-20 amino acid residues), in which case at least one peptide was synthetized. The 2593 peptides were arranged in 89 pools of 28-30 15-mer peptides. PBMC reactivity of each of the 89 pools was assayed directly ex vivo using an IFN-γ Fluorospot assay.
For the initial CMV ORF screen, the responses of 19 CMV-seropositive subjects were evaluated. PBMCs were stimulated with 89 pools covering 563 ORFs of HCMV. Each pool comprised of 28-30 15-mer peptides overlapping by 10 residues. PBMCs that were found reactive to a pool were further tested against individual peptides contained in the pool using IFN-γ Fluorospot assay.
PBMC were thawed, washed and counted for viability using the trypan blue exclusion method. 200,000 cells were plated in triplicates and stimulated with pools (2 ug/ml) or peptides (10 ug/ml), PHA (10 ug/ml) or medium containing equivalent amount of DMSO in 96-well plates (Immubilion-P, Millipore) previously coated with anti IFN-γ antibody (1-DIK, Mabtech, Stockholm, Sweden). After 20 hr incubation at 37° C., cells were discarded and wells were washed six times with PBS/0.05% Tween 20 using an automated plate washer and further incubated with IFN-γ antibody (7-B6-1-FS-BAM) for 2 hrs at room temperature. After incubation, wells were washed and incubated with fluorophore conjugated anti-BAM-490 antibody for 1 hr at room temperature. Finally, the plates were washed and incubated with fluorescence enhancer for 15 min, blotted dry and fluorescent spots were counted by computer assisted image analysis (IRIS Fluorospot reader, Mabtech, Sweden).
Each pool or peptide was considered positive compared to the background that had equivalent amount of DMSO based on the following criteria: (i) 20 or more spot forming cells (SFC) per 10^6 PBMC after background subtraction, (ii) the stimulation index greater than 2, and (iii) p<0.05 by student's t test or Poisson distribution test

Substance | No. of subjects responding | Magnitude of response
1 (NGIRWQYQELQYLVE) [compound 1] | 2 | 222
2 (RYNALTVRSRDSLLL) [compound 2] | 2 | 204
3 (RVRTWFVQRTTLWRR) [compound 3] | 1 | 60
4 (GLWVSSYLVRRPMTI; ends and bridges not checked) [compound 4] | 2 | 890
5 (QGATYQLSIVRQAMQ; ends and bridges not checked) [compound 5] | 1 | 650
6 (GAGLRQLRQQLTVRW) [compound 6] | 1 | 20
7 (MRTVPVTKLYTSRMV) [compound 7] | 1 | 5677
8 (AITLFFFLLALRIPQ) [compound 8] | 1 | 207
9 (ALFTHFVGRPRHCRL) [compound 9] | 1 | 57
10 (MLGIRAMLVMLDYYW) [compound 10] | 1 | 350
11 (PSVRMDFRARRPLRR) [compound 11] | 3 | 1740
12 (ARRLWILSLLAVTLT; ends and bridges not checked) [compound 12] | 1 | 100
13 (LLAVTLTVALAAPSQ; ends and bridges not checked) [compound 13] | 2 | 6420
14 (KDRCLVIRRRWRLVR) [compound 14] | 1 | 60
15 (FVAESITEFLNIGLR) [compound 15] | 1 | 530
16 (HENGIYYGTRSMRKL) [compound 16] | 1 | 827
17 (FCRRFFFPDRPDFFL) [compound 17] | 1 | 107
18 (AEDSVFTSTRARSAT) [compound 18] | 1 | 490
19 (KFVLQDFDVQHLRRL) [compound 19] | 1 | 40
20 (IINYYYVAQKKARHM) [compound 20] | 1 | 163
21 (ALALHFLTSRKGVTD) [compound 21] | 1 | 40

Substance | No. of subjects responding | Magnitude of response
23 (DFLRVVRQQDAFICT) [compound 23] | 2 | 174
24 (ICVARLQAQPSSRHI) [compound 24] | 1 | 37
25 (GVSSVTLLKIFSQVP) [compound 25] | 2 | 220
26 (VLATLAAVRTRRRSV) [compound 26] | 2 | 340
27 (EAYVRINAGQVLPVV) [compound 27] | 1 | 1853
28 (LHCMRYLTSSLVKRY) [compound 28] | 1 | 150
29 (KRYFRPLLRAWSLGL) [compound 29] | 4 | 1388
30 (HLLRNIKTAFGMRVL) [compound 30] | 2 | 1093
31 (ARNLMEFARVGLRAV) [compound 31] | 1 | 1450
32 (TGLVLLLLLLVVRLL) [compound 32] | 1 | 1440
33 (MLFRPTISNSIPRCR) [compound 33] | 1 | 47
34 (LRIIRLLRASIRHEY; ends and bridges not checked) [compound 34] | 1 | 810
35 (RAHIQKFERLHVRRF; ends and bridges not checked) [compound 35] | 1 | 2523
36 (SLQFIGLQRRDVVAL; ends and bridges not checked) [compound 36] | 1 | 83
37 (RDVVALVNFLRHLTQ; ends and bridges not checked) [compound 37] | 1 | 1710
38 (RRTVLFNELMLWLGY; ends and bridges not checked) [compound 38] | 1 | 180
39 (VNAVNKLVYTGRLIM; ends and bridges not checked) [compound 39] | 1 | 340
40 (KELRMCLSFDSNYCR; ends and bridges not checked; cysteine pairing not given here) [compound 40] | 1 | 127
41 (GMKTVAFDLSSPQKS; ends and bridges not checked) [compound 41] | 1 | 193
46 (SYRSTYIILLLTWFA; ends and bridges not checked) [compound 46] | 3 | 3990
47 (LTLRRTIGTLSRLVP; ends and bridges not checked) [compound 47] | 1 | 163

Substance | No. of subjects responding | Magnitude of response
48 (RRRMVSVTLFSPYSV; ends and bridges not checked) [compound 48] | 1 | 53
49 (GRLMEVRQRNGRLRR; ends and bridges not checked) [compound 49] | 1 | 30
50 (WPERCFIQLRSRSAL; ends and bridges not checked) [compound 50] | 3 | 313
51 (GPGFMRYQLIVLIGQ; ends and bridges not checked) [compound 51] | 1 | 3167
52 (IQTMELMIRTVPRIT) [compound 52] | 2 | 384
53 (EFLVRQYVLVDTFGV) [compound 53] | 2 | 104
54 (RREAIVRLEKTPTCQ) [compound 54] | 2 | 407
55 (RRRFKVCDVGRRHII) [compound 55] | 1 | 63
56 (RHRFLWQRRRRARLL) [compound 56] | 1 | 1000
58 (FLKKMLLCALKGRAS) [compound 58] | 1 | 930
59 (MPVQRLTVNVARCVF) [compound 59] | 1 | 20
60 (KFIFELYRLPRLSIA) [compound 60] | 1 | 173
61 (ASKIKMLETRVTLAL) [compound 61] | 1 | 140
63 (AFKLDLLRMIAVSRT) [compound 63] | 2 | 477
64 (MLFFQRYAPAFVTGY) [compound 64] | 1 | 57
65 (DLKYILTRLEYLYKV) [compound 65] | 1 | 30
66 (DPSYVREHGVPIHAD) [compound 66] | 1 | 123
67 (TDLIRFERNIVCTSM) [compound 67] | 3 | 273
68 (EGIMVVYKRNIVAHT) [compound 68] | 1 | 637
69 (HTFKVRVYQKVLTFR) [compound 69] | 1 | 423
